Counter-ions that a name gives are not always drawn.
Legend:
[1] = In-solution Stability Test 1 (clouding by eye in citrate/citric acid, glycerol·1,3-butylene glycol·ethanol, water solution); format: physicochemical; design: key to In-solution Stability Test 1 Room Temperature (20° C.) / In-solution Stability Test 1 50° C.: A: No clouding; B: Clouded; Distinguished Clouding; details: for In-solution Stability Test 1 50° C.: left standing at 50° C. for 10 days; for In-solution Stability Test 1 50° C. / In-solution Stability Test 1 Room Temperature (20° C.): 2 g sample, 16 g mixed solution, clouding state observed by eye; for In-solution Stability Test 1 Room Temperature (20° C.): left standing at room temperature (20° C.) for 1 month
Experimental: In-solution Stability Test 1
(§1) Into a 200 ml-volume Erlenmeyer flask, 2 g of a sample (APM), 0.4 g of sodium citrate dihydrate and 0.05 g of citric acid were charged. Thereto, 16 g of glycerol·1,3-butylene glycol·ethanol mixed solution (volume ratio: 3:5:8) was added and the resulting solution was stirred for 30 minutes. Thereto, 82 g of pure water was added and the resulting solution was further stirred for 2 hours. After filtering this solution through a filter, a half amount was left standing at room temperature (20° C.) for 1 month and the remaining half amount was left standing at 50° C. for 10 days.

[2] = In-solution Stability Test 2 (clouding by eye in citrate/citric acid, glycerol·1,3-butylene glycol·ethanol, water solution); format: physicochemical; design: key to In-solution Stability Test 2 Room Temperature (20° C.) / In-solution Stability Test 2 50° C.: A: No clouding; B: Clouded; Distinguished Clouding; details: for In-solution Stability Test 2 50° C.: left standing at 50° C. for 10 days; for In-solution Stability Test 2 50° C. / In-solution Stability Test 2 Room Temperature (20° C.): 2 g sample, 15 g mixed solution, clouding state observed by eye; for In-solution Stability Test 2 Room Temperature (20° C.): left standing at room temperature (20° C.) for 1 month
Experimental: In-solution Stability Test 2
as §1, with “charged. Thereto, 15 g of” for “charged. Thereto, 16 g of”, “3:5:8) was charged and the” for “3:5:8) was added and the”, “added and further stirred” for “added and the resulting solution was further stirred”

[3] = temperature not specified in the sentence (whole test)

Row | SMILES | clouding in in-solution stability test 1 ([1]; 50° C.) | In-solution Stability Test 1 50° C. [1] | In-solution Stability Test 1 Room Temperature (20° C.) [1] | clouding in in-solution stability test 1 ([1]; room temperature (20° C.)) | clouding in in-solution stability test 2 ([2]; 50° C.) | In-solution Stability Test 2 50° C. [2] | In-solution Stability Test 2 Room Temperature (20° C.) [2] | clouding in in-solution stability test 2 ([2]; room temperature (20° C.)) | clouding in in-solution stability test 1 [1, 3] | clouding in in-solution stability test 2 [2, 3]
1 | O=C1O[C@H]([C@@H](O)CO)C(O)=C1OP(=O)([O-])[O-].[Mg+2] [Comparative Example 1, L-ascorbic acid 2-phosphate magnesium salt] | more distinguished clouding was observed | C | B | clouding was observed | more distinguished clouding was observed | C | B | clouding was observed | – | –
2 | O=C1O[C@H]([C@@H](O)CO)C(O)=C1OP(=O)([O-])[O-].[Mg+2] [Comparative Example 2, L-ascorbic acid 2-phosphate magnesium salt] | more distinguished clouding was observed | C | B | clouding was observed | distinguished clouding was observed | C | C | distinguished clouding was observed | – | –
3 | O=C1O[C@H]([C@@H](O)CO)C(O)=C1OP(=O)(O)O [Example 1, L-ascorbic acid 2-phosphate magnesium salt] | – | A | A | – | – | A | A | – | clouding was not observed | clouding was not observed

From US20040092485A1, “Ascorbic acid 2-phosphate metal salt with low calcium content” (priority 2001, published 2004)
